Data as given in PubChem BioAssay AID624360 (Broad Institute, 2012).
Inconclusive results are not listed. Active and inactive are the calls of the source.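 Rule for the calls: active = fitted curve falls past -35% activity change at a concentration under twice the top valid dose, in every test run; inconclusive = test runs disagree, some active and some inactive; inactive = all test runs inactive, including signal rising instead of falling.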

Assay: inhibitors of IL-1beta-stimulated NF-kB luciferase reporter, dose response, selectivity assay for EBV LMP1 NF-kB inhibitor project, LMP1 TES2-inducible cells, dry powder (AID 624360)
[1] = HEK293 IL-1beta-induced NF-kB luciferase reporter (LMP1 TES2-inducible cell line), 16 h
[2] = HEK293 IL-1beta-induced NF-kB luciferase reporter (LMP1 TES2-inducible cell line), 16 h, at 26 µM (top of the series)

O=c1[nH]c(Nc2nc3ccccc3o2)nc2c1CCCC2
AC35 [1]: 107000 nM

CCc1ccc(/C=C2\SC(=S)N(CCCC(=O)Nc3ccccn3)C2=O)cc1
activity change, negative = inhibition [2]: 40.6% (inactive)

CC12CCC3C(CC=C4CC(O)CCC43CO)C1CCC2OC(=O)c1ccccc1 (centres undefined)
AC35 (HEK293, 16 h): 3880 nM

CCCSc1nnc2c3ccccc3n(Cc3ccccc3)c2n1
AC35 [1]: 2610 nM

CCc1sc(C(=O)Nc2ncccc2O)cc1C
activity change, negative = inhibition [2]: 6.99% (inactive)

C/C(=N\NC(=S)N1CCCCC1)c1cccc(C)n1
AC35 [1]: 343 nM

Fc1ccc2c(c1)c1nnc(SCCN3CCOCC3)nc1n2Cc1ccccc1
AC35 [1]: 4490 nM

Nc1ccn([C@@H]2O[C@H](CO)[C@@H](O)C2O)c(=O)n1 (some centres undefined)
AC35 [1]: 15800 nM

C/C(=N\NC(=S)N1CCC1)c1ccccn1
AC35 [1]: 287 nM

C[C@H](CO)N1C[C@H](C)[C@@H](CN(C)CC2CC2)OCCCC[C@H](C)Oc2ccc(NC(=O)Nc3cccc4ccccc34)cc2C1=O
AC35 [1]: 1130 nM

S=C(N/N=C(\c1ccccc1)c1ccccn1)N(Cc1ccccn1)Cc1ccccn1
AC35 [1]: 769 nM

C/C(=N\NC(=S)N1CC2CCC(CC2)C1)c1ccccn1
AC35 [1]: 913 nM

C/C(=N\NC(=S)N1CCCC1)c1ccccn1
AC35 [1]: 156 nM

C[C@@H]1CCCCO[C@H](CN(C)CC2CCCCC2)[C@H](C)CN([C@@H](C)CO)C(=O)c2cc(NC(=O)NC3CCCCC3)ccc2O1
activity change, negative = inhibition [2]: -0.708% (inactive)

C[C@H](CO)N1C[C@H](C)[C@H](CN(C)C(=O)Nc2ccc(C(F)(F)F)cc2)OCCCC[C@H](C)Oc2ccc(NC(=O)Nc3ccc(F)cc3)cc2C1=O
AC35 [1]: 7850 nM

COc1ccc(C(=O)Nc2ccc3[nH]ccc3c2)cc1
activity change, negative = inhibition [2]: 20.3% (inactive)

Cc1ccc(NC(=O)C2CCN(S(=O)(=O)c3ccc4c(c3)NC(=O)C(C)S4)CC2)cc1Cl (centres undefined)
AC35 [1]: 3670 nM

COc1ccc2[nH]c(C(=O)N/N=C/c3ccc(O)cc3O)cc2c1
AC35 [1]: 6480 nM

C/C(=N\NC(=S)N1CCCCC1)c1ccccn1
AC35 [1]: 168 nM

C/C=C/C/C=C/CCC(=O)[C@H]1O[C@H]1C(N)=O
AC35 [1]: 7670 nM

C[C@@H]1CCCCO[C@H](CN(C)C(=O)NC2CCCCC2)[C@H](C)CN([C@@H](C)CO)C(=O)c2cc(NC(=O)C3CCCCC3)ccc2O1
AC35 [1]: 11700 nM

Cc1cc(NC(=O)c2ccc3c(c2)OCCO3)no1
AC35 [1]: 111000 nM

C/C(=N\NC(=S)N1CCCCCC1)c1ccccn1
AC35 [1]: 213 nM

Cc1ccc(S(=O)(=O)Nc2ccc3c(c2)C(=O)N([C@@H](C)CO)C[C@H](C)[C@@H](CN(C)C(=O)CCC(F)(F)F)OCCCC[C@H](C)O3)cc1
AC35 [1]: 488 nM

C[C@H](CO)N1C[C@H](C)[C@@H](CN(C)Cc2ccc(-c3ccccc3)cc2)Oc2ccc(NC(=O)Nc3cccc4ccccc34)cc2CC1=O
AC35 [1]: 4640 nM

C[C@@H]1CN([C@@H](C)CO)C(=O)c2cc(NC(=O)Nc3ccc4c(c3)OCO4)ccc2O[C@H]1CN(C)CC1CCCCC1
AC35 [1]: 2700 nM

CCC(Sc1nnc2c3ccccc3n(Cc3ccc(Br)cc3)c2n1)C(=O)NCCCN1CCOCC1 (centres undefined)
AC35 [1]: 2710 nM

C[C@@H]1CN([C@@H](C)CO)C(=O)c2cc(NC(=O)Nc3ccc(C(F)(F)F)cc3)ccc2O[C@@H](C)CCCCO[C@H]1CN(C)Cc1ccc(C(F)(F)F)cc1
activity change, negative = inhibition [2]: 12.7% (inactive)

C=C1C[C@]23C[C@@]1(O)CC[C@H]2[C@@]12C=C[C@H](O)[C@@](C)(C(=O)O1)[C@H]2[C@@H]3C(=O)O
activity change, negative = inhibition (HEK293 IL-1beta-induced NF-kB luciferase reporter (LMP1 TES2-inducible cell line), 16 h, at 15 µM (top of the series)): 13.6% (inactive)

C[C@@H]1CCCCO[C@H](CN(C)S(=O)(=O)c2ccccc2)[C@@H](C)CN([C@@H](C)CO)C(=O)c2cc(N(C)C)ccc2O1
activity change, negative = inhibition [2]: 9.13% (inactive)

Cc1c(NC(=O)c2cccc(NC(=O)COc3ccccc3C#N)c2)c(=O)n(-c2ccccc2)n1C
activity change, negative = inhibition [2]: 14.8% (inactive)

CC(C)=CCN(C(=O)C#Cc1ccccc1)[C@H](CO)c1ccccc1
AC35 [1]: 2500 nM

O=C1/C(=C/c2ccncc2)SC(=S)N1Cc1ccccc1
AC35 [1]: 91500 nM

C/C(=N\NC(=S)N1CC2CCC(CC2)C1)c1cnccn1
AC35 [1]: 86.2 nM

COc1ccc(-c2cc3nc4n(c(=O)c3s2)CCC4)cc1
activity change, negative = inhibition [2]: 19.5% (inactive)

S=C(NCc1ccccn1)N/N=C/c1ccccn1
AC35 [1]: 1980 nM

C/C(=N\NC(=S)Nc1ccccc1)c1ccccn1
AC35 [1]: 522 nM

c1ccc(-c2cn3c4c(sc3n2)CCCC4)cc1
activity change, negative = inhibition [2]: 8.88% (inactive)

COc1ccccc1[C@]1(C)ON(c2ccccc2C(F)(F)F)C1=O
AC35 [1]: 8170 nM

CCN1CCN(C(c2cccnc2)c2cc(Cl)c3cccnc3c2O)CC1 (centres undefined)
AC35 [1]: 5660 nM

C[C@@H]1CN([C@@H](C)CO)C(=O)c2cccc(NC(=O)Nc3cccc4ccccc34)c2O[C@H]1CN(C)C(=O)Nc1ccc(C(F)(F)F)cc1
AC35 [1]: 11400 nM

C=CCN1Cc2ccccc2[C@@H]2OC(c3ccc(OCCCO)cc3)=N[C@]2(CCC(=O)OC(C)(C)C)C1=O
activity change, negative = inhibition [2]: 37.8% (inactive)

CC1CN(C(=O)CSc2nnc3c4ccccc4n(Cc4cccc(Cl)c4)c3n2)CCN1C(=O)c1ccccc1F (centres undefined)
AC35 [1]: 9280 nM

COc1ccc2nc(Nc3nc(C)c(CCC(C)C)c(=O)[nH]3)nc(C)c2c1
AC35 [1]: 2720 nM
